Patent publication US8192962B2, “Processes for detecting toxic substances” (Daikin Industries, Ltd., priority 2001, dated 2012)

Test system: Detoxification protein genes
Test: DNA chip mRNA expression in yeast, detoxification protein genes (Table 8)
Type: cell-based, Saccharomyces cerevisiae S288C
Method in brief: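 In this screen, yeast in logarithmic growth are challenged for two hours with a toxic substance at a non-lethal inhibitory concentration. Their mRNA, converted to Cy3- or Cy5-labeled cDNA, hybridizes at 65° C. to a chip spanning every yeast gene, and expression is expressed as a ratio to untreated cells.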

CCCCCCCCCCCCOS(=O)(=O)[O-].[Na+] [(18), sodium lauryl sulfate]
The level of expressed mRNA in the presence of chemical substance/The level of expressed mRNA in the absence of chemical substance (yeast gene YBR244W): 1.2 | The level of expressed mRNA in the presence of chemical substance/The level of expressed mRNA in the absence of chemical substance (yeast gene YBR293W): 0.9 | The level of expressed mRNA in the presence of chemical substance/The level of expressed mRNA in the absence of chemical substance (yeast gene YCL035C): 4.2 | The level of expressed mRNA in the presence of chemical substance/The level of expressed mRNA in the absence of chemical substance (yeast gene YCL069W): 1.0 | The level of expressed mRNA in the presence of chemical substance/The level of expressed mRNA in the absence of chemical substance (yeast gene YCR083W): 1.3 | The level of expressed mRNA in the presence of chemical substance/The level of expressed mRNA in the absence of chemical substance (yeast gene YDL100C): 1.4 | The level of expressed mRNA in the presence of chemical substance/The level of expressed mRNA in the absence of chemical substance (yeast gene YDL168W): 0.8 | The level of expressed mRNA in the presence of chemical substance/The level of expressed mRNA in the absence of chemical substance (yeast gene YDR256C): 2.0 | The level of expressed mRNA in the presence of chemical substance/The level of expressed mRNA in the absence of chemical substance (yeast gene YDR453C): 1.5 | The level of expressed mRNA in the presence of chemical substance/The level of expressed mRNA in the absence of chemical substance (yeast gene YDR513W): 3.2 | The level of expressed mRNA in the presence of chemical substance/The level of expressed mRNA in the absence of chemical substance (yeast gene YDR538W): 0.9 | The level of expressed mRNA in the presence of chemical substance/The level of expressed mRNA in the absence of chemical substance (yeast gene YEL027W): 1.4 | The level of expressed mRNA in the presence of chemical substance/The level of expressed mRNA in the absence of chemical substance (yeast gene YEL065W): 0.6 | The level of expressed mRNA in the presence of chemical substance/The level of expressed mRNA in the absence of chemical substance (yeast gene YER185W): 1.1 | The level of expressed mRNA in the presence of chemical substance/The level of expressed mRNA in the absence of chemical substance (yeast gene YFL050C): 1.0 | The level of expressed mRNA in the presence of chemical substance/The level of expressed mRNA in the absence of chemical substance (yeast gene YGL013C): 1.0 | The level of expressed mRNA in the presence of chemical substance/The level of expressed mRNA in the absence of chemical substance (yeast gene YGL254W): 1.2 | The level of expressed mRNA in the presence of chemical substance/The level of expressed mRNA in the absence of chemical substance (yeast gene YGR088W): 2.0 | The level of expressed mRNA in the presence of chemical substance/The level of expressed mRNA in the absence of chemical substance (yeast gene YGR138C): 0.7 | The level of expressed mRNA in the presence of chemical substance/The level of expressed mRNA in the absence of chemical substance (yeast gene YGR197C): 1.9 | The level of expressed mRNA in the presence of chemical substance/The level of expressed mRNA in the absence of chemical substance (yeast gene YGR209C): 2.4 | The level of expressed mRNA in the presence of chemical substance/The level of expressed mRNA in the absence of chemical substance (yeast gene YGR224W): 1.3 | The level of expressed mRNA in the presence of chemical substance/The level of expressed mRNA in the absence of chemical substance (yeast gene YHL040C): 1.0 | The level of expressed mRNA in the presence of chemical substance/The level of expressed mRNA in the absence of chemical substance (yeast gene YHL047C): 1.2 | The level of expressed mRNA in the presence of chemical substance/The level of expressed mRNA in the absence of chemical substance (yeast gene YHR008C): 1.0 | The level of expressed mRNA in the presence of chemical substance/The level of expressed mRNA in the absence of chemical substance (yeast gene YHR048W): 0.9 | The level of expressed mRNA in the presence of chemical substance/The level of expressed mRNA in the absence of chemical substance (yeast gene YHR053C): 0.5 | The level of expressed mRNA in the presence of chemical substance/The level of expressed mRNA in the absence of chemical substance (yeast gene YHR055C): 0.6 | The level of expressed mRNA in the presence of chemical substance/The level of expressed mRNA in the absence of chemical substance (yeast gene YIR002C): 1.2 | The level of expressed mRNA in the presence of chemical substance/The level of expressed mRNA in the absence of chemical substance (yeast gene YIR038C): 2.0 | The level of expressed mRNA in the presence of chemical substance/The level of expressed mRNA in the absence of chemical substance (yeast gene YJL101C): 1.0 | The level of expressed mRNA in the presence of chemical substance/The level of expressed mRNA in the absence of chemical substance (yeast gene YJR104C): 1.1 | The level of expressed mRNA in the presence of chemical substance/The level of expressed mRNA in the absence of chemical substance (yeast gene YKL026C): 3.3 | The level of expressed mRNA in the presence of chemical substance/The level of expressed mRNA in the absence of chemical substance (yeast gene YKL064W): 1.3 | The level of expressed mRNA in the presence of chemical substance/The level of expressed mRNA in the absence of chemical substance (yeast gene YKR066C): 1.1 | The level of expressed mRNA in the presence of chemical substance/The level of expressed mRNA in the absence of chemical substance (yeast gene YKR105C): 1.0 | The level of expressed mRNA in the presence of chemical substance/The level of expressed mRNA in the absence of chemical substance (yeast gene YKR106W): 0.8 | The level of expressed mRNA in the presence of chemical substance/The level of expressed mRNA in the absence of chemical substance (yeast gene YLL028W): 1.2 | The level of expressed mRNA in the presence of chemical substance/The level of expressed mRNA in the absence of chemical substance (yeast gene YLL057C): 1.3 | The level of expressed mRNA in the presence of chemical substance/The level of expressed mRNA in the absence of chemical substance (yeast gene YLL060C): 2.3 | The level of expressed mRNA in the presence of chemical substance/The level of expressed mRNA in the absence of chemical substance (yeast gene YLR043C): 2.2 | The level of expressed mRNA in the presence of chemical substance/The level of expressed mRNA in the absence of chemical substance (yeast gene YLR046C): 5.4 | The level of expressed mRNA in the presence of chemical substance/The level of expressed mRNA in the absence of chemical substance (yeast gene YML028W): 1.5 | The level of expressed mRNA in the presence of chemical substance/The level of expressed mRNA in the absence of chemical substance (yeast gene YML116W): 1.0 | The level of expressed mRNA in the presence of chemical substance/The level of expressed mRNA in the absence of chemical substance (yeast gene YMR015C): 1.0 | The level of expressed mRNA in the presence of chemical substance/The level of expressed mRNA in the absence of chemical substance (yeast gene YMR038C): 1.3 | The level of expressed mRNA in the presence of chemical substance/The level of expressed mRNA in the absence of chemical substance (yeast gene YNL239W): 1.4 | The level of expressed mRNA in the presence of chemical substance/The level of expressed mRNA in the absence of chemical substance (yeast gene YNL241C): 1.0 | The level of expressed mRNA in the presence of chemical substance/The level of expressed mRNA in the absence of chemical substance (yeast gene YNL259C): 2.4 | The level of expressed mRNA in the presence of chemical substance/The level of expressed mRNA in the absence of chemical substance (yeast gene YOL158C): 1.7 | The level of expressed mRNA in the presence of chemical substance/The level of expressed mRNA in the absence of chemical substance (yeast gene YOR031W): 2.4 | The level of expressed mRNA in the presence of chemical substance/The level of expressed mRNA in the absence of chemical substance (yeast gene YOR153W): 3.1 | The level of expressed mRNA in the presence of chemical substance/The level of expressed mRNA in the absence of chemical substance (yeast gene YOR247W): 0.9 | The level of expressed mRNA in the presence of chemical substance/The level of expressed mRNA in the absence of chemical substance (yeast gene YOR251C): 1.3 | The level of expressed mRNA in the presence of chemical substance/The level of expressed mRNA in the absence of chemical substance (yeast gene YOR273C): 3.1 | The level of expressed mRNA in the presence of chemical substance/The level of expressed mRNA in the absence of chemical substance (yeast gene YPL163C): 1.4 | The level of expressed mRNA in the presence of chemical substance/The level of expressed mRNA in the absence of chemical substance (yeast gene YPR200C): 1.0
